Laboratory results taken from patent US7863269B2, “Imino-imidazo-pyridine derivatives having antithrombotic activity” (sanofi-aventis, priority 2006, dated 2011).

target: T1, PAR1 (Homo sapiens, UniProt P25116); experiment: Inhibition of PAR1-mediated platelet aggregation induced by TRAP (96-well format); type: cell-based; details: washed platelets from blood of healthy volunteers; agonist TRAP (thrombin-receptor activating peptide) solution 70-100 μM; AUC at 650 nm, 37° C., 20 minutes
T1 construct: endogenous in cells; host or cells: washed platelets from platelet-rich plasma of healthy volunteers
T1 sequence (P25116 22-425): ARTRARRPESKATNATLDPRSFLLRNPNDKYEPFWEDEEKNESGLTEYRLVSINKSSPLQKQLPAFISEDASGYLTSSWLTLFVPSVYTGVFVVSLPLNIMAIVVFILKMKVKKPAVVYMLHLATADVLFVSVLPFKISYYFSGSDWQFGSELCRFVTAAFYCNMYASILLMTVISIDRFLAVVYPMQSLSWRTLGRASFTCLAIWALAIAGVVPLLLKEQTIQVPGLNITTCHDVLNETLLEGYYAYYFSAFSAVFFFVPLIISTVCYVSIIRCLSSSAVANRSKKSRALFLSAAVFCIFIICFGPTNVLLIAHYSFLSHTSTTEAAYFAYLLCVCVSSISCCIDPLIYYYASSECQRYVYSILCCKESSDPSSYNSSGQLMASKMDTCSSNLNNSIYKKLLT
Protocol: PAR 1 determination method: Inhibition of PAR1-mediated platelet aggregation The pharmacological testing of the substances was carried out in the platelet aggregation induced by TRAP (thrombin-receptor activating peptide) in a 96-well format. To this end, blood from healthy volunteers was taken in 20 ml syringes into which 2 ml of 3.13% strength sodium citrate solution was initially introduced. After a 20-minute centrifugation at 150×g, the platelet-rich plasma (PRP) was separated off and treated with 1 μl of PGE1 solution (500 μg/ml in ethanol)/ml of PRP. After incubation at RT for 5 minutes, this was centrifuged at 120×g for 15 minutes in order to remove the leucocytes. The leucocyte-free PRP was transferred to 15 ml PP tubes in 5 ml portions and centrifuged off at 360×g for 15 minutes in order to pellet the platelets. Subsequently, the plasma was decanted and the platelet sediment from 5 ml of PRP was resuspended in 1 ml of Tyrode (120 mM NaCl, 2.6 mM KCl, 12 mM NaHCO3, 0.39 mM NaH2PO4×H2O, 10 mM HEPES, 0.35% BSA, 5.5 mM glucose, pH 7.4) and adjusted with Tyrode to a platelet count of 3×10^5/microliter (μl). 13 ml of this cell suspension were then treated with 866 μl of 10 mM CaCl2 solution and 120 μl thereof per well were pipetted to a 96-well plate, in which 15 μl of the substance to be tested were initially introduced. After incubation in the dark at RT for 30 minutes, 15 μl of a TRAP solution (70-100 μM) were added as the agonist and kinetics were recorded with shaking at 37° C. for 20 minutes in a SpectraMax 340 at 650 nm. The areas under the curves of negative control (Tyrode/DMSO) and positive control (15 μl of agonist/DMSO) were calculated and the difference was defined as the 100% value. The substances to be tested were pipetted as a dilution series in a duplicate determination, likewise the AUC of each substance concentration was determined and the % inhibition of the AUC against the control was calculated. By means of the % inhibition, the IC50 was calculated with the aid of a nonlinear regression analysis according to the 4 parameter equation.

IC50 [nM]	Compound
13000	N=c1n(CC(=O)c2cccc(S(F)(F)(F)(F)F)c2)cc2ccccn12 [Example 2, 2-(3-Iminoimidazo[1,5-a]pyridin-2-yl)-1-(3-pentafluorosulfanylphenyl)ethanone]
850	CC(C)(C)c1cc(C(=O)Cn2c(C3CC3)c3ccccn3c2=N)cc(C(C)(C)C)c1O [Example 3, 2-(1-Cyclopropyl-3-iminoimidazo[1,5-a]pyridin-2-yl)-1-(3,5-di-tert-butyl-4-hydroxyphenyl)ethanone]
730	CC(C)(C)c1cc(C(=O)Cn2cc3cc(C(F)(F)F)ccn3c2=N)cc(C(C)(C)C)c1O [Example 6b, 1-(3,5-Di-tert-butyl-4-hydroxyphenyl)-2-(3-imino-7-trifluoromethylimidazo[1,5-a]pyridin-2-yl)ethanone]
510	COC(=O)c1ccc2cn(CC(=O)c3cc(N4CCOCC4)c(OC)c(C(C)(C)C)c3)c(=N)n2c1 [Example 8, Methyl 2-[2-(3-tert-butyl-4-methoxy-5-morpholin-4-ylphenyl)-2-oxoethyl]-3-imino-2,3-dihydroimidazo[1,5-a]pyridine-6-carboxylate]
20	CCOc1cc2cn(CC(=O)c3cc4c(c(C(C)(C)C)c3)OCCN4C)c(=N)n2cc1C(=O)NC [Example 12, 2-[2-(8-tert-Butyl-4-methyl-3,4-dihydro-2H-benzo[1,4]oxazin-6-yl)-2-oxoethyl]-7-ethoxy-3-imino-2,3-dihydroimidazo[1,5-a]pyridine-6-carboxylic acid methylamide]
9500	CCOc1ccc2n(c1=O)C(=N)N(CC(=O)c1cc(N3CCOCC3)c(OC)c(C(C)(C)C)c1)C2 [Example 18, 2-[2-(3-tert-Butyl-4-methoxy-5-morpholin-4-ylphenyl)-2-oxoethyl]-6-ethoxy-3-imino-2,3-dihydro-1H-imidazo[1,5-a]pyridin-5-one]
900	CCOc1cc2cn(CC(=O)c3cc(N4CCOCC4)c(OC)c(C(C)(C)C)c3)c(=N)n2cc1C(=O)NC [Example 19, 2-[2-(3-tert-Butyl-4-methoxy-5-morpholin-4-ylphenyl)-2-oxoethyl]-7-ethoxy-3-imino-2,3-dihydroimidazo[1,5-a]pyridine-6-carboxylic acid Methylamide]
70	CCOC(=O)c1cc(OC)n2c(=N)n(CC(=O)c3cc(N4CCOCC4)c(OC)c(C(C)(C)C)c3)cc2c1 [Example 20, Ethyl 2-[2-(3-tert-butyl-4-methoxy-5-morpholin-4-ylphenyl)-2-oxoethyl]-3-imino-5-methoxy-2,3-dihydroimidazo[1,5-a]pyridine-7-carboxylate]
